Measurements published in patent publication US3947578A, “Omega-[4-(3"-indolyl)-piperidino]-alkyl-arylketones as nevroleptics” (Roussel Uclaf, priority 1972, dated 1976).
Where a name gives a salt, the structure may show the parent alone. Read-outs that look alike come from different tables or passages of the source.

Tests used:
[1] = test system: mouse; assay: traction test (neuroleptic activity); type: in vivo; details: ip, 25 min, I.P., 25 minutes after intraperitoneal administration, read-out: DE50 Traction Test
Protocol: a. The traction test which consists of suspending a mouse by his front paws from a metal wire stretched horizontally. […] The test was run 25 minutes after intraperitoneal administration of the test product to determine the DE50 dose at which 50% of the animals effected recovering in less than 5 seconds.

[2] = test system: mouse; assay: chimney test (neuroleptic activity); type: in vivo; details: ip, 25 min, I.P., 25 minutes after intraperitoneal administration, read-out: DE50 Chimney Test
Protocol: (§1) b. The chimney test which consists of placing a mouse in the extreme end of a glass tube 30 cm long and with a diameter adapted to the size of the animal. This tube is straightened vertically in a rapid motion and the animal with its head down mounts normally the length of the tube in less than 30 seconds. The test was effected 25 minutes after intraperitoneal administration of the test compounds to determine the DE50 dose which is the dose at which 50% of the animals effected a mounting in less than 30 seconds.

[3] = test system: young rat; assay: cataleptic activity test; type: in vivo; details: ip, I.P., dose provoking catalepsy in 50% of the animals, read-out: DE50 Test of Cataleptic Activity
Source text: c. […] The DE50 dose is that dose provoking catalepsy in 50% of the animals after administration of the product.

[4] = test system: dogs; assay: anti-emetic activity test vis-a-vis apomorphine hydrochloride; type: in vivo, dog; details: Canis lupus familiaris, ip, read-out: DE50 Test of Anti-emetic Activity
Protocol: (§2) The neuroleptic activity of the compounds of Examples 1 to 8 were determined in the following 4 tests and the results are reported in Table I:
(§3) d. The anti-emetic activity test which is determined on dogs vis-a-vis a subcutaneous injection of 0.1 mg/kg of apomorphine hydrochloride to determine the DE50 dose which is that dose which reduces 50% of the number of vomitings provoked by the injection of apomorphine hydrochloride.

[5] = acute toxicity (DL50); details: mouse, in vivo, ip; I.P.; mice; mortality recorded 48 hours after administration
Protocol: The different products were tested for the dose which would kill 50% of mice when administered intraperitoneally (DL50).

[6] = neuroleptic activity, overall (4 tests of Table I); type: in vivo; details: summary of Table I
Protocol: as §2
a. The traction test which consists of suspending a mouse by his front paws from a metal wire stretched horizontally. In a time less than 5 seconds, the normal animal effected recovering by managing to bring one of the rear paws to the wire. The test was run 25 minutes after intraperitoneal administration of the test product to determine the DE50 dose at which 50% of the animals effected recovering in less than 5 seconds.
as §1
c. The cataleptic activity test using the technique of Boissier et al [Therapie, Vol. 18 (1963), p. 1257-1277] with a young rat having slightly twisted homolaterally paws and noting the intensity of catalepsy. The DE50 dose is that dose provoking catalepsy in 50% of the animals after administration of the product.
as §3

[7] = I.P., dogs, subcutaneous 0.1 mg/kg apomorphine hydrochloride, 50% reduction of vomitings

Row | SMILES | ED50 [1] [mg/kg] | ED50 [2] [mg/kg] | ED50 [3] [mg/kg] | ED50 [4, 7] [mg/kg] | LD50 at 48 h [5] [mg/kg] | neuroleptic activity (in words) [6] | ED50 [4] [mg/kg]
1 | O=C(CCCN1CCC(c2c[nH]c3ccccc23)CC1)c1ccc(F)cc1 [Example 1, p-fluoro-ω-[4'-(3"-indolyl)-piperidino]-butyrophenone hydrochloride] | 2.2 | 1.6 | 8.5 | 0.02 | 100 | very interesting neuroleptic activity | 
2 | Cn1cc(C2CCN(CCCC(=O)c3ccc(F)cc3)CC2)c2ccccc21 [Example 2, p-fluoro-ω-[4'-(1"-methyl-3"-indolyl)-piperidino]-butyrophenone hydrochloride] | 5.2 | 4.5 | 12 |  | 185 |  | 0.2
3 | COc1ccc2c(C3CCN(CCCC(=O)c4ccc(F)cc4)CC3)c[nH]c2c1 [Example 3, p-fluoro-ω-[4'-(6"-methoxy-3"-indolyl)-piperidino]-butyrophenone hydrochloride] | 1.2 | 0.9 | 2 | 0.01 | 190 | very interesting neuroleptic activity | 
4 | COc1ccc2[nH]cc(C3CCN(CCCC(=O)c4ccc(F)cc4)CC3)c2c1 [Example 4, p-fluoro-ω-[4'-(5"-methoxy-3"-indolyl)-piperidino]-butyrophenone hydrochloride] | 1 | 0.2 | 6 | < 0.3 | 300 | very interesting neuroleptic activity | 
5 | COc1ccc2c(C3CCN(CCCC(=O)c4ccc(F)cc4)CC3)c(C)[nH]c2c1 [Example 5, p-fluoro-ω-[4'-(2"-methyl-6"-methoxy-3"-indolyl)-piperidino]butyrophenone] | 3.8 | 0.3 | 3.5 | 0.0045 | 600 | very interesting neuroleptic activity | 
6 | O=C(CCCN1CCC(c2c[nH]c3ccccc23)CC1)c1ccc(Br)cc1 [Example 6, p-bromo-ω-[4'-(3"-indolyl)-piperidino]-butyrophenone hydrochloride] |  |  |  |  | 300 |  | 
7 | O=C(CCCN1CCC(c2c[nH]c3ccccc23)CC1)c1ccccc1 [Example 7, ω-[4'-(3'-indolyl)-piperidino]-butyrophenone hydrochloride] | 7 | 4 | 11 | 0.06 | 300 |  | 
8 | O=C(CCN1CCC(c2c[nH]c3ccccc23)CC1)c1ccc(F)cc1 [Example 8, hydrochloride] | 2.5 | 2.7 |  |  | 600 |  | 
